Source: article PMC7181641, “Aspartate aminotransferase Rv3722c governs aspartate-dependent nitrogen metabolism in Mycobacterium tuberculosis” (Nature Communications, 2020)

Experiments:
[1] = target: T1, Rv3722c (Mycobacterium tuberculosis, UniProt O69689)
[2] = target: T1, Rv3722c; remark: listed apart in the source

T1 sequence (O69689 whole entry): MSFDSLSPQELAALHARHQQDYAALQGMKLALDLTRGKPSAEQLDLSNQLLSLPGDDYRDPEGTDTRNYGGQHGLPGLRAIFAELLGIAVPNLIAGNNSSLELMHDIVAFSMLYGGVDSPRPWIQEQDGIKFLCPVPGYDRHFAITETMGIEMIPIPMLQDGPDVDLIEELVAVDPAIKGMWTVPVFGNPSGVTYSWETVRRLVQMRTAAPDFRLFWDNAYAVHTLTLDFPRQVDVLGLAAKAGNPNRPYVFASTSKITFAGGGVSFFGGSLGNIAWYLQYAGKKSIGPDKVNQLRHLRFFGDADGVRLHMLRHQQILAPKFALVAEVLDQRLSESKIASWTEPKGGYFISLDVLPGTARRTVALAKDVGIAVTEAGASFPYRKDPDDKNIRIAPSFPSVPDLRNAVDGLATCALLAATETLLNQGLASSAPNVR

Question: Which “X-ray crystal structure, 2.6 Å” value [1] does the source give for `N[C@@H](CCC(=O)O)C(=O)O` [Glu] here?
Answer: The value was “clear electron density of the amino acid in the active site”.

Question: How did the “X-ray crystal structure, 2.23 Å” value [2] turn out when `O=C(O)c1cc(O)c2ccccc2n1` [kynurenic acid] was run?
Answer: Its value is “or the final keto acid product kynurenic acid (Kyna)”.

Question: `Nc1ccccc1C(=O)C[C@H](N)C(=O)O` [kynurenine] was tested. Which “X-ray crystal structure, 2.23 Å” value [2] did it give?
Answer: Its value is “chains were bound to either the external aldimine intermediate PLP-kynurenine (PLP-Kyn)”.

Question: Which “X-ray crystal structure, 2.23 Å” value [2] does the source give for `Cc1ncc(COP(=O)(O)O)c(C=O)c1O` [pyridoxal phosphate] here?
Answer: The value was “the external aldimine intermediate PLP-kynurenine (PLP-Kyn)”.
